We go through one substance from patent US6380155B1, “Use of vasopressin receptor antagonist for regulation of ACTH release” (SmithKline Beecham plc., priority 1996, dated 2002).

This assay relates to ob/ob mice. The assay can be described thus: Plasma corticosterone in ob/ob mice after 7-day osmotic minipump treatment. The format is in vivo, mouse. The conditions noted are these: C57BL/6J ob/ob mice, 86.4 μg/day by osmotic minipump for 7 days. The method, then:
A study was performed in 4-6 weeks old C57BL/6J mice homozygous (ob/ob) for the obese gene mutation to assess the effect of [deamino-Pen^1, o-Me-Tyr^2, Arg^8]-AVP (Sigma) a non-selective peptide V1b receptor antagonist on corticosterone concentration. Osmotic minipumps (Alzet Model 1007D, 0.5 μl/h for 7 days) were filled either with the peptide (to deliver 86.4 μg/day for 7 days) or vehicle and primed at least for 4 h at 37° C. before their implantation. A group of mice heterozygous (+/?) for the obese gene mutation was also implanted with osmotic minipumps filled with vehicle alone. After 7 days of treatment blood was collected into EDTA tubes and separated plasma assayed for corticosterone concentration measurement, by using a commercial rat ^125I-corticosterone (Amersham, U.K.).

On to “[deamino-Pen^1, o-Me-Tyr^2, Arg^8]-AVP [AVP antagonist]”, for which the Plasma corticosterone concentration (n=7 per group, vehicle 228.9±63 ng/ml) is 109.9 ± 19.4 ng/mL. Besides, the “Plasma corticosterone concentration (effect in words)” value (versus vehicle and lean group) was “reduced”.
